Test results taken from US20090088380A1, “GHRH ANALOGS AND THERAPEUTIC USES THEREOF” (priority 2007, published 2009).
Non-standard residues stand in square brackets, D forms with d. Residues, ends and D or L forms follow the SMILES beside them.

Legend:
[1] = test system: Sprague-Dawley rats; conditions: rat, in vivo
Procedure: In order to assess such use of the GHRH analogs, the following experiments were undertaken. More specially, the goal was to assess the pharmacodynamic and pharmacokinetic profiles and acute toxicity of GHRH analog #5 when administered once by subcutaneous or intravenous injection to female Sprague-Dawley rats followed by a 14-day observation period and the pharmacodynamic profile in a male Beagle dog when the GHRH analog was administered at escalating doses to the same dog by subcutaneous injection with at least 2-day washout period. The above GHRH analog is a variation of a synthetic acetate salt of an amidated synthetic 29-amino acid peptide that corresponds to the amino-terminal segment of the naturally-occurring human growth hormone—releasing hormone (GHRH) with four amino acid substitutions in positions 2, 10, 15, and 22.
Human GHRH analog #5 in 0.9% sodium chloride for injection USP was administered once either by intravenous (IV) or subcutaneous (SC) injection to female rats followed by a 14-day observation period, as shown in Table 2. Prior to administration, all dosing formulations were filtered using a 0.22 μm filter to ensure sterility. The actual amount of GHRH analog #5 administered was calculated and adjusted based on the animal's most recent body weight. Dosing started at approximately the same time each day, commencing at 9:00 am ±30 minutes.

[2] = in vivo; conditions: Beagle, dog
Procedure: No mortality, adverse clinical sign, effects on body weight, food consumption, opthalmology, haematology, coagulation, clinical chemistry, urinalysis or organ weights were noted following the dosing or recovery periods. Microscopic findings at the injection sites were noted among treated animals, however, the changes were reversed following the recovery period. A no adverse effect level for this study was determined to be 3 mg/kg.

[3] = test system: malnourished subjects with CKD; experiment: Phase II CKD: anthropometry; format: in vivo, human; conditions: ITT
Procedure: Height (cm) was measured only at the screening visit. Anthrompometry was measured at every visit from baseline to follow-up. Anthropometric measurements included weight, skinfold thicknesses and arm circumference. Weight (kg) was measured using a high performance scale. Subjects were asked to stand on the scale with minimal clothing, no shoes, and with even weight on both feet. Skinfold thickness (mm) was measured by using Harpenden Skinfold Callipers at 4 sites: biceps, triceps, suprailiacal and subscapular. Arm circumference (cm) was measured using a tape measure that is flexible, inelastic and metric. The site measured was marked, and the tape was not to be too tight or too loose, and to lie flat on the skin, and be horizontal. Bioimpedance measurements were made to measure body composition at every visit from baseline to Day 28. The bioimpedance scale (RJL Systems) was used. Resistance, reactance and the phase angle were recorded.

[4] = test system: malnourished subjects with CKD; experiment: Phase II CKD: hormones (TSH, free thyroxin, testosterone, oestradiol); format: in vivo, human; conditions: ITT
Procedure: A blood sample was taken at screening for analysis of TSH and free thyroxin. […] The hormones testosterone (nmol/L) and oestradiol (nmol/L) were measured at baseline and on Day 28 because those could be affected by GH and could lead to secondary changes in body composition. Samples were analysed locally.

[5] = Day 0, listed as GHRH(1-29)NH2 synthetic analog
[6] = Day 28, listed as GHRH(1-29)NH2 synthetic analog

CC[C@H](C)[C@H](NC(=O)[C@H](C)NC(=O)[C@H](CC(=O)O)NC(=O)[C@@H](C)NC(=O)[C@@H](N)Cc1ccc(O)cc1)C(=O)N[C@@H](Cc1ccccc1)C(=O)N[C@H](C(=O)N[C@@H](CC(N)=O)C(=O)N[C@@H](CO)C(=O)N[C@H](Cc1ccc(O)cc1)C(=O)N[C@@H](CCCNC(=N)N)C(=O)N[C@@H](CCCCN)C(=O)N[C@H](C(=O)N[C@@H](CC(C)C)C(=O)N[C@H](C)C(=O)N[C@@H](CCC(N)=O)C(=O)N[C@@H](CC(C)C)C(=O)N[C@@H](CO)C(=O)N[C@@H](C)C(=O)N[C@@H](CCCNC(=N)N)C(=O)N[C@@H](CCCCN)C(=O)N[C@@H](CCCCN)C(=O)N[C@@H](CC(C)C)C(=O)N[C@@H](CCC(N)=O)C(=O)N[C@@H](CC(=O)O)C(=O)N[C@H](C(=O)N[C@@H](CCSC)C(=O)N[C@@H](CO)C(=O)N[C@@H](CCCNC(=N)N)C(N)=O)[C@@H](C)CC)C(C)C)[C@@H](C)O [GHRH analog #5, [D-Ala^2, D-Tyr^10, D-Ala^15, Lys^22] hGHRH(1-29)-NH2] (H-Y[dA]DAIFTNS[dY]RKVL[dA]QLSARKKLQDIMSR-NH2)
Treatment-related clinical signs [1]: No treatment-related clinical signs were observed
NOAEL at 672 h [2]: 3 mg/kg
Arm circumference: mean (SD) ([3]; Baseline): 26.35 (5.42) cm
Body weight: mean (SD) ([3]; Baseline): 62.84 (9.98) kg
Skinfold thickness biceps: median ([3]; Baseline): 5.1 mm
Skinfold thickness subscapular: median ([3]; Baseline): 8.0 mm
Skinfold thickness suprailiacal: median ([3]; Baseline): 7.0 mm
Skinfold thickness triceps: median ([3]; Baseline): 12.0 mm
Arm circumference: mean (SD) ([3]; Day 28): 27.33 (4.81) cm
Body weight: mean (SD) ([3]; Day 28): 63.21 (10.45) kg
Skinfold thickness biceps: median ([3]; Day 28): 4.1 mm
Skinfold thickness subscapular: median ([3]; Day 28): 8.6 mm
Skinfold thickness suprailiacal: median ([3]; Day 28): 7.3 mm
Skinfold thickness triceps: median ([3]; Day 28): 13.3 mm
Arm circumference: adjusted difference ([3]; vs placebo): 0.33 cm
Body weight: adjusted difference ([3]; vs placebo): 0.96 kg
Skinfold thickness triceps: ratio ([3]; vs placebo): 1.066
Fat free mass (kg): mean (SD) ([3]; anthropometry, Baseline): 46.64 (9.13) kg
Fat mass (%): median ([3]; anthropometry, Baseline): 25.4%
Fat mass (kg): median ([3]; anthropometry, Baseline): 15.8 kg
Fat free mass (kg): mean (SD) ([3]; anthropometry, Baseline, listed as GHRH(1-29)NH2 synthetic analog): 46.64 kg
Fat free mass (kg): mean (SD) ([3]; anthropometry, Day 28): 46.20 (9.16) kg
Fat mass (%): median ([3]; anthropometry, Day 28): 25.9%
Fat mass (kg): median ([3]; anthropometry, Day 28): 15.6 kg
Fat free mass (kg): mean (SD) ([3]; anthropometry, Day 28, listed as GHRH(1-29)NH2 synthetic analog): 46.20 kg
Fat free mass (kg): adjusted difference ([3]; anthropometry, vs placebo): 0.41 kg
Oestradiol: mean (SD) ([4]; Day 0): 30.400 (23.333) pg/mL
Testosterone: mean (SD) ([4]; Day 0): 1.550 (1.974) ng/mL
Oestradiol: mean (SD) [4, 5]: 30.400 pg/mL
Testosterone: mean (SD) [4, 5]: 1.550 ng/mL
Oestradiol: mean (SD) ([4]; Day 28): 16.281 (10.896) pg/mL
Testosterone: mean (SD) ([4]; Day 28): 1.032 (1.327) ng/mL
Oestradiol: mean (SD) [4, 6]: 16.281 pg/mL
Testosterone: mean (SD) [4, 6]: 1.032 ng/mL
